# Measured values taken from paper PMC9069370, “Integrated Design of a Membrane‐Lytic Peptide‐Based Intravenous Nanotherapeutic Suppresses Triple‐Negative Breast Cancer” (Advanced Science, 2022).
# Square brackets hold non-standard residues; d marks the D form. Peptide text beside a SMILES is read from it.
# Columns and labels:
# [1] = tested on: HMLER; assay: cells; format: cell-based, human; settings: 72 h
# Description: (§1) […], and MCF-10A cells were maintained in MEGM with supplements and growth factors bovine pituitary extract, hydrocortisone, human epidermal growth factor, insulin, and gentamicin/amphotericin-B.
# [2] = tested on: HMLER‐shEcad; assay: cells; format: cell-based, human; settings: 72 h
# Description: as §1
# [3] = tested on: MCF‐10A; assay: cells; format: cell-based, human; settings: for IC50: 72 h; for selectivity for cancerous cells over non‐tumorigenic MCF‐10A: 2D culture, ratio of IC50
# Description: as §1
# [4] = tested on: U2OS; format: cell-based, human; settings: 72 h
# [5] = tested on: HEK293T; assay: cells; format: cell-based, human; settings: 72 h
# [6] = Tryptophan fluorescent binding assay; settings: tryptophan fluorescence; 50 µM peptide, lipid titrated 0-5000 µM; phosphate buffered saline 1X, pH 7.4; values as lipid per peptide
# Protocol: 50 µM ACP peptides and varied concentrations (concentrations: 0, 25, 50, 100, 150, 200, 250, 500, 1250, and 2500 µM) of POPC or POPC:POPG (3:1 ratio) large unilamellar vesicles were prepared in 10 mM phosphate buffer (pH 7.0). The solutions were measured after 1 h of incubation. Excitation was fixed at 280 nm (slit 9 nm) and emission was collected from 300 to 450 nm (slit 9 nm). The spectra were recorded using Cytation 5 Cell Imaging Multi‐Mode Reader from BioTek and were averaged by three scans.
# Lipid Concentration-induced
# Name Sequence† 50% Peptide Binding (L/P)
# Extended Data Table 3 | Tryptophan binding assay. […]
# peptide binding onto liposome. 50 µM peptides were fixed and incubated with titrated lipid (POPC vesicle […]
# phosphate buffered saline (1X, pH 7.4). The lipid concentration that causes 50 % peptide binding was determined using tryptophan fluorescent binding assay and the values are shown as lipid per peptide.
# [7] = ANTS/DPX liposome leakage assay; settings: for Peptide Concentration-induced 50 % ANTS/DPX leakage at pH 4.8 (L/P), 3POPC/1POPG Vesicle / Peptide Concentration-induced 50 % ANTS/DPX leakage at pH 4.8 (L/P), POPC Vesicle / Peptide Concentration-induced 50 % ANTS/DPX leakage at pH 7.4 (L/P), 3POPC/1POPG Vesicle / Peptide Concentration-induced 50 % ANTS/DPX leakage at pH 7.4 (L/P), POPC Vesicle: 0.5 mM vesicles, peptide 0-20 µM, 3 h incubation, lipid per peptide; for Peptide Concentration-induced 50 % ANTS/DPX leakage at pH 4.8 (L/P), 3POPC/1POPG Vesicle / Peptide Concentration-induced 50 % ANTS/DPX leakage at pH 4.8 (L/P), POPC Vesicle: HCl-adjusted PBS 1X pH 4.8; for Peptide Concentration-induced 50 % ANTS/DPX leakage at pH 7.4 (L/P), 3POPC/1POPG Vesicle / Peptide Concentration-induced 50 % ANTS/DPX leakage at pH 7.4 (L/P), POPC Vesicle: PBS 1X pH 7.4, high ratio = more potent; for change of ANTS/DPX dye leakage / liposome selectivity at pH 4.8: pH = 4.8 compared with physiological pH, anionic versus neutral liposomes
# Protocol: Vesicle preparation: 5 mM ANTS and 12.5 mM DPX were entrapped in 0.1 µm diameter extruded vesicles (either POPC or POPC/POPG at a ratio of 3:1) with lipids. Gel filtration chromatography of Sephadex G‐100 was used to remove external free ANTS/DPX from LUVs with entrapped contents. LUVs were diluted to 0.5 mM and used to measure the leakage activity by the addition of aliquots of ACPs. Leakage was measured after 3 h incubation. 10% Triton was used as the positive control to measure the maximum leakage of the vesicle. Fluorescence emission spectra were recorded using excitation and emission wavelength of 350 and 510 nm for ANTS/DPX using a BioTek Synergy H1 Hybrid Multi‐Mode Reader.
# Peptide Concentration-induced Peptide Concentration-induced
# Name Sequence† 50 % ANTS/DPX leakage 50 % ANTS/DPX leakage at pH 7.4 (L/P) at pH 4.8 (L/P)
# POPC Vesicle 3POPC/1POPG Vesicle POPC Vesicle 3POPC/1POPG Vesicle […]
# Extended Data Table 4 | Peptide concentration-induced 50 % ANTS/DPX liposome leakage. 0.5 mM POPC and 3POPC/1POPG vesicles were fixed and incubated with titrated peptide concentration (0, 0.02, […]
# hydrochloric acid-adjusted phoshate buffered saline (1X, pH 4.8). The values are shown as lipid per
IC50 [1],IC50 [2],IC50 [3],IC50 [4],"Lipid Concentration-induced 50% Peptide Binding (L/P), 3POPC/1POPG Vesicle [6]","Lipid Concentration-induced 50% Peptide Binding (L/P), POPC Vesicle [6]",SMILES,IC50 [5],"Peptide Concentration-induced 50 % ANTS/DPX leakage at pH 4.8 (L/P), 3POPC/1POPG Vesicle [7]","Peptide Concentration-induced 50 % ANTS/DPX leakage at pH 4.8 (L/P), POPC Vesicle [7]","Peptide Concentration-induced 50 % ANTS/DPX leakage at pH 7.4 (L/P), 3POPC/1POPG Vesicle [7]","Peptide Concentration-induced 50 % ANTS/DPX leakage at pH 7.4 (L/P), POPC Vesicle [7]",selectivity for cancerous cells over non‐tumorigenic MCF‐10A [3],change of ANTS/DPX dye leakage / liposome selectivity at pH 4.8 [7]
5.55 ± 0.35 µM,6.05 ± 2.76 µM,8.4 ± 1.56 µM,61 ± 1.41 µM,0.38 L/P,0.63 L/P,CC(C)C[C@H](NC(=O)CN)C(=O)N[C@@H](CC(C)C)C(=O)N[C@@H](CC(=O)O)C(=O)N[C@@H](CC(C)C)C(=O)N[C@@H](CC(C)C)C(=O)N[C@@H](CCC(=O)O)C(=O)N[C@@H](CC(C)C)C(=O)N[C@@H](CC(C)C)C(=O)N[C@@H](CC(C)C)C(=O)N[C@@H](CCC(=O)O)C(=O)N[C@@H](C)C(=O)N[C@@H](C)C(=O)NCC(=O)N[C@@H](Cc1c[nH]c2ccccc12)C(N)=O [DEE] (H-GLLDLLELLLEAAGW-NH2),9.91 ± 0.44 µM,164 L/P,110 L/P,597 L/P,644 L/P,,
5.35 ± 1.91 µM,3.6 ± 0.42 µM,20.2 ± 6.72 µM,36.5 ± 3.92 µM,1.50 L/P,0.75 L/P,CC(C)C[C@H](NC(=O)CN)C(=O)N[C@@H](CC(C)C)C(=O)N[C@@H](CC(=O)O)C(=O)N[C@@H](CC(C)C)C(=O)N[C@@H](CC(C)C)C(=O)N[C@@H](CCC(=O)O)C(=O)N[C@@H](CC(C)C)C(=O)N[C@@H](CC(C)C)C(=O)N[C@@H](CC(C)C)C(=O)N[C@@H](Cc1c[nH]cn1)C(=O)N[C@@H](C)C(=O)N[C@@H](C)C(=O)NCC(=O)N[C@@H](Cc1c[nH]c2ccccc12)C(N)=O [DEH] (H-GLLDLLELLLHAAGW-NH2),10.5 ± 4.67 µM,193 L/P,63 L/P,548 L/P,620 L/P,,
3.75 ± 0.92 µM,2.8 ± 0.14 µM,22.7 ± 4.31 µM,17.2 ± 1.06 µM,0.72 L/P,1.00 L/P,CC(C)C[C@H](NC(=O)CN)C(=O)N[C@@H](CC(C)C)C(=O)N[C@@H](CC(=O)O)C(=O)N[C@@H](CC(C)C)C(=O)N[C@@H](CC(C)C)C(=O)N[C@@H](Cc1c[nH]cn1)C(=O)N[C@@H](CC(C)C)C(=O)N[C@@H](CC(C)C)C(=O)N[C@@H](CC(C)C)C(=O)N[C@@H](CCC(=O)O)C(=O)N[C@@H](C)C(=O)N[C@@H](C)C(=O)NCC(=O)N[C@@H](Cc1c[nH]c2ccccc12)C(N)=O [DHE] (H-GLLDLLHLLLEAAGW-NH2),11.1 ± 1.91 µM,469 L/P,58 L/P,581 L/P,566 L/P,,
,10.6 ± 3.46 µM,,78.8 ± 5.3 µM,4.50 L/P,1.33 L/P,CC(C)C[C@H](NC(=O)CN)C(=O)N[C@@H](CC(C)C)C(=O)N[C@@H](CCC(=O)O)C(=O)N[C@@H](CC(C)C)C(=O)N[C@@H](CC(C)C)C(=O)N[C@@H](CCC(=O)O)C(=O)N[C@@H](CC(C)C)C(=O)N[C@@H](CC(C)C)C(=O)N[C@@H](CC(C)C)C(=O)N[C@@H](CCC(=O)O)C(=O)N[C@@H](C)C(=O)N[C@@H](C)C(=O)NCC(=O)N[C@@H](Cc1c[nH]c2ccccc12)C(N)=O [EEE] (H-GLLELLELLLEAAGW-NH2),50 µM,28 L/P,35 L/P,346 L/P,143 L/P,> 25 fold,no increase in selectivity at low pH
,3.6 ± 0.85 µM,,19.6 ± 3.96 µM,0.50 L/P,0.50 L/P,CC(C)C[C@H](NC(=O)CN)C(=O)N[C@@H](CC(C)C)C(=O)N[C@@H](CCC(=O)O)C(=O)N[C@@H](CC(C)C)C(=O)N[C@@H](CC(C)C)C(=O)N[C@@H](CCC(=O)O)C(=O)N[C@@H](CC(C)C)C(=O)N[C@@H](CC(C)C)C(=O)N[C@@H](CC(C)C)C(=O)N[C@@H](Cc1c[nH]cn1)C(=O)N[C@@H](C)C(=O)N[C@@H](C)C(=O)NCC(=O)N[C@@H](Cc1c[nH]c2ccccc12)C(N)=O [EEH] (H-GLLELLELLLHAAGW-NH2),12.9 ± 0.14 µM,168 L/P,58 L/P,755 L/P,738 L/P,> 25 fold,significantly increased dye leakage from anionic liposomes
,2.55 ± 0.07 µM,,18.2 ± 1.06 µM,0.44 L/P,0.44 L/P,CC(C)C[C@H](NC(=O)CN)C(=O)N[C@@H](CC(C)C)C(=O)N[C@@H](CCC(=O)O)C(=O)N[C@@H](CC(C)C)C(=O)N[C@@H](CC(C)C)C(=O)N[C@@H](Cc1c[nH]cn1)C(=O)N[C@@H](CC(C)C)C(=O)N[C@@H](CC(C)C)C(=O)N[C@@H](CC(C)C)C(=O)N[C@@H](CCC(=O)O)C(=O)N[C@@H](C)C(=O)N[C@@H](C)C(=O)NCC(=O)N[C@@H](Cc1c[nH]c2ccccc12)C(N)=O [EHE] (H-GLLELLHLLLEAAGW-NH2),13 µM,384 L/P,75 L/P,706 L/P,952 L/P,> 25 fold,significantly increased dye leakage from anionic liposomes
,2.05 ± 0.21 µM,,49.4 ± 13.3 µM,0.20 L/P,0.20 L/P,CC(C)C[C@H](NC(=O)CN)C(=O)N[C@@H](CC(C)C)C(=O)N[C@@H](CCCCN)C(=O)N[C@@H](CC(C)C)C(=O)N[C@@H](CC(C)C)C(=O)N[C@@H](CCC(=O)O)C(=O)N[C@@H](CC(C)C)C(=O)N[C@@H](CC(C)C)C(=O)N[C@@H](CC(C)C)C(=O)N[C@@H](CCC(=O)O)C(=O)N[C@@H](C)C(=O)N[C@@H](C)C(=O)NCC(=O)N[C@@H](Cc1c[nH]c2ccccc12)C(N)=O [KEE] (H-GLLKLLELLLEAAGW-NH2),11.1 ± 1.84 µM,108 L/P,97 L/P,657 L/P,626 L/P,> 25 fold,no increase in selectivity at low pH
0.44 ± 0.1 µM,0.36 µM,0.57 ± 0.01 µM,5.84 ± 0.04 µM,,,CC(C)C[C@@H](NC(=O)CN)C(=O)N[C@H](CC(C)C)C(=O)N[C@H](CC(=O)O)C(=O)N[C@H](CC(C)C)C(=O)N[C@H](CC(C)C)C(=O)N[C@H](CCC(=O)O)C(=O)N[C@H](CC(C)C)C(=O)N[C@H](CC(C)C)C(=O)N[C@H](CC(C)C)C(=O)N[C@H](CCCCN)C(=O)N[C@H](C)C(=O)N[C@H](C)C(=O)NCC(=O)N[C@H](Cc1c[nH]c2ccccc12)C(N)=O [d-DEK] (H-G[dL][dL][dD][dL][dL][dE][dL][dL][dL][dK][dA][dA]G[dW]-NH2),3.28 ± 0.21 µM,,,,,,
